Measured values as given in the supplement of paper PMC10307832.

Key:
Experiment in all cases: relative viability (nuclei count vs DMSO), 5 days (fraction); higher = more cells survive
[1] = compound: O=C(CCCCCCNC(=O)c1cnc(N(c2ccccc2)c2ccccc2)nc1)NO [Ricolinostat] + CC(=O)Nc1cccc(-n2c(=O)n(C3CC3)c(=O)c3c(Nc4ccc(I)cc4F)n(C)c(=O)c(C)c32)c1 [Trametinib] (partner 0.02 µM)
Summary of the method: (§1)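 Relative viability equals treated-well nuclei counts divided by vehicle-well nuclei counts. Counts came from 4× images of lung cancer cell lines grown in 1536-well plates for 5 days after pin-tool dosing on the day after seeding. Dosing used one drug alone or a fixed anchor-drug dose plus five library-drug doses (not always all listed) in √10 steps, and values are medians of duplicate plates.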

Ricolinostat + AZD7762 = compound: O=C(CCCCCCNC(=O)c1cnc(N(c2ccccc2)c2ccccc2)nc1)NO [Ricolinostat] + NC(=O)Nc1cc(-c2cccc(F)c2)sc1C(=O)N[C@H]1CCCNC1 [AZD7762] (partner 0.2 µM)
Summary of the method: as §1

[2] = compound: O=C(CCCCCCNC(=O)c1cnc(N(c2ccccc2)c2ccccc2)nc1)NO [Ricolinostat] + CC(=O)c1c(C)c2cnc(Nc3ccc(N4CCNCC4)cn3)nc2n(C2CCCC2)c1=O [Palbociclib] (partner 0.5 µM)
Summary of the method: as §1

[3] = compound: C1=CC=C(C(=C1)C2=CC=C(C=C2)C3=CSC4=C3C(=C(C(=O)N4)C#N)O)O + CS(=O)(=O)N1CCN(Cc2cc3nc(-c4cccc5[nH]ncc45)nc(N4CCOCC4)c3s2)CC1 [Pictilisib] (partner 1 µM)
Summary of the method: as §1

Cell Line | relative viability ([1]; first compound 0.08 µM) | relative viability ([1]; first compound 0.253 µM) | relative viability ([1]; first compound 0.8 µM) | relative viability ([1]; first compound 2.53 µM) | relative viability (Ricolinostat + AZD7762; first compound 0.08 µM) | relative viability (Ricolinostat + AZD7762; first compound 0.253 µM) | relative viability (Ricolinostat + AZD7762; first compound 0.8 µM) | relative viability (Ricolinostat + AZD7762; first compound 2.53 µM) | relative viability ([2]; first compound 0.08 µM) | relative viability ([2]; first compound 0.253 µM) | relative viability ([2]; first compound 0.8 µM) | relative viability ([2]; first compound 2.53 µM) | relative viability ([3]; first compound 0.08 µM) | relative viability ([3]; first compound 0.253 µM) | relative viability ([3]; first compound 0.8 µM) | relative viability ([3]; first compound 2.53 µM) | relative viability ([3]; first compound 8 µM)
LU99A | 0.555 | 0.559 | 0.475 | 0.599 | 0.324 | 0.378 | 0.253 | 0.159 | 0.43 | 0.399 | 0.396 | 0.355 | 0.283 | 0.307 | 0.339 | 0.332 | 0.295
HCC-78 |  | 0.782 | 0.768 | 0.601 |  | 0.718 | 0.453 | 0.2 |  | 0.438 | 0.484 | 0.479 | 0.169 | 0.286 | 0.205 | 0.192 | 0.196
NCI-H1666 | 0.872 | 0.869 | 0.84 | 0.879 | 0.705 | 0.886 | 0.714 | 0.768 | 0.741 | 0.664 | 0.644 | 0.598 | 0.321 | 0.572 | 0.404 | 0.29 | 0.405
EKVX | 0.283 | 0.282 | 0.426 | 0.368 | 0.673 | 0.732 | 0.654 | 0.487 | 0.358 | 0.42 | 0.408 | 0.422 | 0.457 | 0.482 | 0.376 | 0.425 | 0.367
HARA | 0.704 | 0.804 | 0.529 | 0.644 | 0.35 | 0.256 | 0.184 | 0.236 | 0.269 | 0.288 | 0.238 | 0.248 |  | 0.668 | 0.449 | 0.392 | 0.442
A-427 | 0.652 | 0.776 | 0.723 | 0.654 | 0.606 | 0.708 | 0.518 | 0.507 | 0.503 | 0.531 | 0.474 | 0.457 | 0.577 | 0.751 | 0.683 | 0.75 | 0.886
NCI-H2087 | 0.211 | 0.188 | 0.173 | 0.233 | 1.24 | 1.27 | 1.07 | 0.973 | 0.263 | 0.165 | 0.178 | 0.0962 | 0.783 | 0.892 | 0.956 | 0.848 | 0.772
NCI-H460 | 0.114 | 0.169 | 0.184 | 0.0996 | 0.589 | 0.582 | 0.587 | 0.322 | 0.184 | 0.191 | 0.0967 | 0.0766 | 0.339 | 0.325 | 0.367 | 0.319 | 0.333
PC-14 | 0.733 | 0.789 | 0.666 | 0.417 | 0.26 | 0.321 | 0.306 | 0.26 | 0.57 | 0.478 | 0.462 | 0.406 | 0.604 | 0.674 | 0.658 | 0.797 | 0.52
NCI-H1993 | 0.5 | 0.583 | 0.564 | 0.665 | 0.53 | 0.884 | 0.55 | 0.459 | 0.614 | 0.67 | 0.664 | 0.514 | 0.901 | 1.01 | 0.762 | 0.902 | 0.828
